We go through 25 molecules from patent publication US20060062859A1, “Composition and method to optimize and customize nutritional supplement formulations by measuring genetic and metabolomic contributing factors to disease diagnosis, stratification, prognosis, metabolism, and therapeutic outcomes” (priority 2004, published 2006).

Where no end group is shown, it is not given here.

For experiment [1] the following is noted: VTA / midbrain dopamine neurons; cited from earlier work.
For experiment [2] the following is noted: repeated stress; cited from earlier work.
For the next experiment, the system named is synaptosomal dopamine. The settings on record: cited from earlier work.
Experiment [3] is described as follows: Enkephalinase inhibitors in mice: brain enkephalins and alcohol preference. In kind it is in vivo. The settings on record: for alcohol preference: acceptance and 14 day preference test; for brain enkephalins: d-phenylalanine 500 mg/kg/day 18 days, metabolite 25 micrograms i.c.v.
For experiment [4] the following is noted: double-blind placebo controlled; cited from earlier work.
For experiment [5] the following is noted: cited from earlier work; for OA pain / joint function: people with OA.
The target in another experiment is T1, D2 receptors in the Nacc (Rattus norvegicus, UniProt P61169).
T1 construct: from tissue; host or cells: nucleus accumbens in vivo; study cited from the literature
T1 sequence (P61169 whole entry): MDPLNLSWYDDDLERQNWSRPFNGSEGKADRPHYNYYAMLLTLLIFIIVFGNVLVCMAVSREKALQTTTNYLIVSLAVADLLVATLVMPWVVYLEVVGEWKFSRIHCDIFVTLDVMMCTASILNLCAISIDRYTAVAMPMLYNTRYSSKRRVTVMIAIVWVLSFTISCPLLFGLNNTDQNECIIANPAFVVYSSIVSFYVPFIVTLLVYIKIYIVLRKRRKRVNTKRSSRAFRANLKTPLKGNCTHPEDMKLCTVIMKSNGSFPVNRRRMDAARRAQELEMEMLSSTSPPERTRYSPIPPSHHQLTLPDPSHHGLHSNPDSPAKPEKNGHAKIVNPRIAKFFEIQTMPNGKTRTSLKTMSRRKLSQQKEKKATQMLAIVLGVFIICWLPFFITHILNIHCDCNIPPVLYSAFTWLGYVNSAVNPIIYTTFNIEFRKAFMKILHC
Particulars: bilateral, nmol/side; cited from earlier work.

For experiment [6] the following is noted: cited from earlier work.
Another experiment concerns the target T2, insulin receptor (IR) (Mus musculus, UniProt P15208).
T2 construct: endogenous in cells; study cited from the literature
Particulars: cited from earlier work.

The conditions of experiment [7]: in vivo; cited from earlier work.
Experiment [8] relates to sweet and bitter receptors on the tongue. The settings on record: in vivo; cited from earlier work.
The conditions of experiment [9]: direct microinjection; cited from earlier work.
For experiment [10] the following is noted: cited from earlier work. The source holds these as a separate data set.
Experiment [11] has as its system brain dopamine and serotonin flux. Particulars: cited from earlier work.
A further experiment deals with release of serotonin. Particulars: long lasting and dose dependent; cited from earlier work.
The nature of experiment [12]: Compliance with Trexan after rapid detoxification of methadone patients. In kind it is in vivo, human. The settings on record: P<0.0001. The method, then: Over the last decade, a new rapid method to detoxify either methadone or heroin addicts utilizing TrexanR sparked interest in many treatment centers throughout the United States, Canada, as well as many countries on a worldwide basis. […] It may also be interesting too further test this hypothesis with the sublingual combination of the partial opiate mu receptor agonist buprenorphrine. The ingredients tested included DL-phenylalanine (2760 mg/day), L-Glutamine (150 mg/day), chromium picolinate (360 micrograms/day), pyridoxal-5-phosphate (30 mg/day). • Most recently a study was performed by Julia Ross best selling author of The Diet Cure (Viking Press USA, 1999; Penguin UK, Au, and USA, 2000), in an outpatient clinic in Mill Valley, Calif. involving amino-acid therapy and enkephalinase inhibition based on Blum's work. […]

The conditions of experiment [13]: chronic treatment; cited from earlier work.

T2 sequence (P15208 28-748 limits assumed): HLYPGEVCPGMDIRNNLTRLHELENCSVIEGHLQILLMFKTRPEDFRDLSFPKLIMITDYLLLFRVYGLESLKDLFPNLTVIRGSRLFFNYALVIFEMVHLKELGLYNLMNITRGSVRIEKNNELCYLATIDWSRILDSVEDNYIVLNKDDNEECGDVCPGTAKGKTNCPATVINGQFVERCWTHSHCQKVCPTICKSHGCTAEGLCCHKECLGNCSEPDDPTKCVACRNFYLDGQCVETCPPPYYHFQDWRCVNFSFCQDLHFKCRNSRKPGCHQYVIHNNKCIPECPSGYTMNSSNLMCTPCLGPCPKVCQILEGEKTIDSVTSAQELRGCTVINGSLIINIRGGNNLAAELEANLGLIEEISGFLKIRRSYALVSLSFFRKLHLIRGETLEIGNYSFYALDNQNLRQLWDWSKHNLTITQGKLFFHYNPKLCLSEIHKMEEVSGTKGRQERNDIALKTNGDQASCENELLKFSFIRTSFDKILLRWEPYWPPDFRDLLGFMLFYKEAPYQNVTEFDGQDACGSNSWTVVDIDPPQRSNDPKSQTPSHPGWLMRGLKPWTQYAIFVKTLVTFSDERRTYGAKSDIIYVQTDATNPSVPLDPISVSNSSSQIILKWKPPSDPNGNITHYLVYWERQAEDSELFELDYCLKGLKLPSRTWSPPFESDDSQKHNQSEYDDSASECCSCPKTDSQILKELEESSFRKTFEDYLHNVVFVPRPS
T2 sequence (P15208 753-1372 limits assumed): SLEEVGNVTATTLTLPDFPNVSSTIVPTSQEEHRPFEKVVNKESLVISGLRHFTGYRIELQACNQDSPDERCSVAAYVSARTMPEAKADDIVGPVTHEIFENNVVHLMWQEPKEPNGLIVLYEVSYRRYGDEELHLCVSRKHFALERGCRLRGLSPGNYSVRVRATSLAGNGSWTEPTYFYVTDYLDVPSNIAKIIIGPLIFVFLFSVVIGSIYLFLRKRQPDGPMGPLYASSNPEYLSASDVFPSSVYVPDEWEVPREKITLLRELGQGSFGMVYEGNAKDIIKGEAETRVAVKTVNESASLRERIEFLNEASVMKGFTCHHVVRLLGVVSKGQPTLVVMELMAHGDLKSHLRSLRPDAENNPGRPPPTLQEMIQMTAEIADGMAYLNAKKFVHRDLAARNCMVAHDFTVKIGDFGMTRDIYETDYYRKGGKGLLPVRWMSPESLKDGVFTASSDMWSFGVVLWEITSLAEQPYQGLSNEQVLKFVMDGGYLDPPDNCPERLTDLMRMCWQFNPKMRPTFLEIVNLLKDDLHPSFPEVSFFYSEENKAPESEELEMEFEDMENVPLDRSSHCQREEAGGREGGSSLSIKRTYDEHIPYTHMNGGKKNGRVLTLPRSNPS

For the molecule “substance P (RPKPQQFFGLM; ends and bridges not checked; UniProt P20366 58-68, looked up) [SP, tachykinin neuropeptide, substance P]”, in experiment [1], the “tonic pain / analgesia in the formalin test” value is “inhibit tonic pain”.

Regarding `CN(C)CCCN1c2ccccc2CCc2ccc(Cl)cc21` [clomipramine], the development of hyperalgesia entry in experiment [2] is reported as “blocks”.

Take `CN1[C@@H]2CC[C@H]1C[C@@H](OC(c1ccccc1)c1ccccc1)C2` [Cogentin]: the “release of dopamine formed from 14C-phenylalanine” value (“release of dopamine formed” for short) in the experiment with synaptosomal dopamine was “increased”.

Regarding `O=C(O)CCc1ccccc1` [hydrocunnamic acid, reference compound], in experiment [3], the alcohol preference entry is recorded as “significantly reduced” and the brain enkephalins result is listed as “brain changes of the enkephalins”.

`N[C@H](Cc1ccccc1)C(=O)O` [d-phenylalanine]: in experiment [3], the alcohol preference entry is listed as “significantly reduced” and the brain enkephalins entry is recorded as “brain changes of the enkephalins”.

Consider `NC(Cc1ccccc1)C(=O)O` (racemic) [dl-phenylalanine], for which the “psychosocial stress as measured by SCL” value in [4] is “reduces stress”.

On to `C[S+](CC[C@H](N)C(=O)[O-])C[C@H]1O[C@@H](n2cnc3c(N)ncnc32)[C@H](O)[C@@H]1O` (stereo partly drawn) [SAM-e, S-adenosyl-L-methionine], for which the “OA pain / joint function” value in [5] was “equal to NSAIDs”.

Regarding `Oc1cc2c(cc1O)C(c1ccccc1)CNCC2` (centres unmarked) [SKF 38393], the “persistent phase of formalin-induced nociception” value on D2 receptors in the Nacc was “without effect”.

`CNCCC(Oc1ccc(C(F)(F)F)cc1)c1ccccc1` (centres unmarked) [fluoxitine]: in experiment [2], the development of hyperalgesia result is recorded as “blocks”. Moreover, the “ingestion of saccharin solutions” value in experiment [6] (normal rats) was “suppresses”.

Turning to `CCn1cc(C(=O)O)c(=O)c2ccc(Cc3ccccc3)nc21` [Amfoelic acid], the “release of dopamine formed” value with synaptosomal dopamine was “net release”.

As to `O=C(OC[C@H]1O[C@@H](OC(=O)c2cc(O)c(O)c(OC(=O)c3cc(O)c(O)c(O)c3)c2)[C@H](OC(=O)c2cc(O)c(O)c(OC(=O)c3cc(O)c(O)c(O)c3)c2)[C@@H](OC(=O)c2cc(O)c(O)c(OC(=O)c3cc(O)c(O)c(O)c3)c2)[C@@H]1OC(=O)c1cc(O)c(O)c(OC(=O)c2cc(O)c(O)c(O)c2)c1)c1cc(O)c(O)c(OC(=O)c2cc(O)c(O)c(O)c2)c1` [Tannic Acid], at insulin receptor (IR), the “expression of key genes for adipogenesis (PPAR-gamma 2; c-fos; c-jun and c-myc)” value is given as “inhibit”; the “phosphorylation of the insulin receptor (IR)” value is recorded as “induces phosphorylation”; the “translocation of the glucose transporter (GLUT 4)” value is “translocation”.

With `O=S(=O)([O-])[O-].[O]=[V+2]` [vanadyl, Vanadyl sulfate], in experiment [7], the blood sugar levels entry was “very effective in normalizing blood sugar levels”.

Turning to `CCN1CCC[C@H]1CNC(=O)c1c(O)c(Cl)cc(Cl)c1OC` [raclopride], the “persistent phase of formalin-induced nociception” value on D2 receptors in the Nacc is given as “blocked”.

As for gurmarin, the “sweet taste of glucose and sucrose” value in experiment [8] is reported as “block”.

As for `CCCN1CCc2cccc3c2[C@H]1Cc1ccc(O)c(O)c1-3` [n-propylnor-apomorphine], the “symptoms after withdrawal of opiates” value in experiment [9] is listed as “significantly suppresses”.

Take `[Ca+2]` [calcium]: in experiment [10] (adults), the “lower body weight per 300 mg increment of regular intake” value is 2.5 to 3.0 kg. The “weight loss compared to the placebo group” value in experiment [10] (approximately 4 years of observation) is listed as “significant weight loss”. Further, in experiment [10] (children), the “less body fat per 300 mg increment of regular intake” value is “about 1 kg”. Besides, in experiment [10] (increased intake), the “reduction of prevalence of overweight and obesity (estimate)” value was 60-80%.

Regarding `CC(C)CC(N(C)C)C1(c2ccc(Cl)cc2)CCC1` (centres unmarked) [Sibutramine], the “serotonin and dopamine concentrations in striatal and hypothalamic brain regions” value in experiment [11] (higher doses) was “increased”. Further, in experiment [11] (low doses), the “serotonin and dopamine concentrations in dialysates” value is given as “no effect”.

Take `N[C@@H](Cc1c[nH]c2ccc(O)cc12)C(=O)O` [5-HTP, 5-hydroxy-l-tryptophan]: the 5-HT in dialysates entry in the experiment with release of serotonin is on record as “immediate increase”.

On to `O=C1CC[C@@]2(O)[C@H]3Cc4ccc(O)c5c4[C@@]2(CCN3CC2CC2)[C@H]1O5` [Trexan], for which the “average number of days of compliance” value in experiment [12] is reported as 37 days.

Regarding `N[C@@H](Cc1c[nH]c2ccccc12)C(=O)O` [tryptophan], the development of hyperalgesia result in experiment [2] was “blocks”.

Consider `CC(N)Cc1ccccc1` (centres unmarked) [Amphetamine], for which, in the experiment on synaptosomal dopamine, the “release of dopamine formed” value is reported as “increased”.

For `CN1CC[C@]23c4c5ccc(O)c4O[C@H]2[C@@H](O)C=C[C@H]3[C@H]1C5` [morphine], in [1], the “tonic pain / analgesia in the formalin test” value is listed as “induces analgesia”. Besides, in experiment [13], the food intake entry is “decreased food intake”.

For the molecule `N[C@H]1C(O)O[C@H](CO)[C@@H](O)[C@@H]1O` (some centres unmarked) [glucosamine], the “progression of the disease” value in experiment [5] (knee OA, three years) is listed as “slowed, if not stopped”.

`CCN[C@@H](C)Cc1cccc(C(F)(F)F)c1` [d-fenfluramine]: in experiment [6] (non-deprived rats), the “consumption of a sucrose solution” value is “reduced”.

On to CHONDROITIN SULFATE, for which the “OA pain / joint function” value in experiment [5] was “significant improvement in pain and inflammation and improved joint function”.
